Experimental findings from patent US20080207694A1, “Hydroxamates as Histone Deacetylase Inhibitors and Pharmaceutical Formulations Containing Them” (priority 2005, published 2008) are described below.

The subject of test [1] is Human colon carcinoma cells HCT-116. As to the kind of experiment: Cytotoxic activity on culture of human colon carcinoma cells HCT-116 (Alamar Blue). Format: cell-based. The conditions noted are these: HCT-116 cells, 72 hours after addition of compounds, Alamar Blue viability. As for the experimental part:
(§1) The activity of the compounds as histone deacetylase (HDAC) inhibitors was measured using an in vitro acetylation assay. The compounds were then evaluated as inhibitors of proliferation of human tumor cell cultures.
24 hours after seeding, the compounds at different concentrations are added. […] 72 hours after addition of the compounds, cell viability is measured by means of the dye Alamar Blue.

The test system of test [2] is histone deacetylase (HDAC), nuclear extract of Hela cells. Nature of the test: Deacetylase activity on nuclear extract of HeLa cells (Fluor de Lys kit). Format: biochemical, human. The conditions noted are these: percent inhibition relative to control without inhibitor, compound at 0.1 μM. As for the experimental part:
as §1
Deacetylase Activity on Nuclear Extract of Hela Cells (Human Cervical Cancer Cell)
The assay (Fluor de Lys™ kit, BioMol) is divided into two steps: in the first step the substrate which comprises an acetylated lysine residue is reacted with the nuclear extract (HeLa) containing the enzymatic activity in the presence and absence of inhibitors. In the second step a fluorogenic reagent is added which highlights the deacetylated residues. A reduction in fluorescence is obtained where there has been inhibition of the deacetylase activity. The result is finally expressed as percent inhibition relative to the control without inhibitor at a concentration of 0.1 μM.

In test [1] (Homo sapiens, HCT-116, 72 h), `O=C(CCCC1CCN(C(=O)NCc2ccccc2)CC1)NO` [Ex 7, 4-(3-Hydroxycarbamoyl-propyl)-piperidine-1-carboxylic acid benzylamide] displayed an IC50 of 300 nM. Moreover, the “% inhib. 0.1 μM” value in test [2] was found to be 59%.

In test [1] (Homo sapiens, HCT-116, 72 h), `O=C(CCCC1CCN(C(=O)Nc2ccccc2)CC1)NO` [Ex 8, 4-(3-Hydroxycarbamoyl-propyl)-piperidine-1-carboxylic acid phenylamide] came in with an IC50 of 700 nM. Besides, in test [2], the “% inhib. 0.1 μM” value was found to be 53%.

As to `Cc1ccc2ccccc2c1C(=O)N1CCC(CCCC(=O)NO)CC1` [Ex 15, N-Hydroxy-4-[1-(2-methyl-naphthalene-1-carbonyl)-piperidin-4-yl]-butyramide], half-maximal inhibition in test [1] (Homo sapiens, HCT-116, 72 h) (IC50) required 840 nM. In addition, the “% inhib. 0.1 μM” value in test [2] stood at 43%.

For `Cc1ccc(NC(=O)N2CCC(CCCC(=O)NO)CC2)cc1` [Ex 22, 4-(3-Hydroxycarbamoyl-propyl)-piperidine-1-carboxylic acid p tolylamide], in test [1], inhibition was half-maximal at 940 nM (IC50). For the same compound, in test [2], the “% inhib. 0.1 μM” value amounted to 67%.

As for `O=C(CCCC1CCN(C(=O)NCc2ccc(Cl)cc2)CC1)NO` [Ex 34, 4-(3-Hydroxycarbamoyl-propyl)-piperidine-1-carboxylic acid 4-chloro-benzylamide], the midpoint of inhibition in test [1] (Homo sapiens, HCT-116, 72 h), the IC50, lay at 330 nM. In addition, in test [2], the “% inhib. 0.1 μM” value is recorded as 64%.

As to `O=C(CCCC1CCN(C(=O)Nc2cccc3ccccc23)CC1)NO` [Ex 35, 4-(3-Hydroxycarbamoyl-propyl)-piperidine-1-carboxylic acid 1-naphthylamide], 710 nM corresponded to half-maximal inhibition in test [1] (Homo sapiens, HCT-116, 72 h) (IC50). Also, the “% inhib. 0.1 μM” value in test [2] is given as 55%.

In turn, `O=C(CCCC1CCN(C(=O)Nc2ccc3ccccc3c2)CC1)NO` [Ex 36, 4-(3-Hydroxycarbamoyl-propyl)-piperidine-1-carboxylic acid 2-naphthylamide] returned an IC50 in test [1] (Homo sapiens, HCT-116, 72 h) of 830 nM. Also, in test [2], the “% inhib. 0.1 μM” value is given as 73%.

Compound `O=C(CCCC1CCN(C(=O)NCc2cccc(Cl)c2)CC1)NO` [Ex 39, 4-(3-Hydroxycarbamoyl-propyl)-piperidine-1-carboxylic acid 3-chloro-benzylamide] displayed a half-maximal inhibitory concentration (IC50) in test [1] (Homo sapiens, HCT-116, 72 h) of 810 nM. Also, the “% inhib. 0.1 μM” value in test [2] is 60%.

Consider `O=C(CCCC1CCN(C(=O)NCc2ccccc2F)CC1)NO` [Ex 45, 4-(3-Hydroxycarbamoyl-propyl)-piperidine-1-carboxylic acid 2-fluoro-benzylamide], for which the IC50 in test [1] (Homo sapiens, HCT-116, 72 h) amounted to 890 nM. Also, the “% inhib. 0.1 μM” value in test [2] is listed as 79%.

Take `Cc1ccc(CNC(=O)N2CCC(CCCC(=O)NO)CC2)cc1` [Ex 52, 4-(3-Hydroxycarbamoyl-propyl)-piperidine-1-carboxylic acid 4-methyl-benzylamide]: the IC50 in test [1] (Homo sapiens, HCT-116, 72 h) was determined as 500 nM. Moreover, the “% inhib. 0.1 μM” value in test [2] worked out at 68%.

Regarding `Nc1ccccc1NC(=O)N1CCC(CCCC(=O)NO)CC1` [Ex 73, 4-(3-Hydroxycarbamoyl-propyl)-piperidine-1-carboxylic acid (2-amino-phenyl)-amide], the IC50 in test [1] (Homo sapiens, HCT-116, 72 h) amounted to 840 nM. For the same compound, the “% inhib. 0.1 μM” value in test [2] is given as 73%.

Regarding `O=C(CCCC1CCN(C(=O)CNC(=O)c2cc3ccccc3s2)CC1)NO` [Ex 79, Benzo[b]thiophene-2-carboxylic acid {2-[4-(3-hydroxycarbamoyl-propyl)-piperidin-1-yl]-2-oxo-ethyl}-amide], in test [1] (Homo sapiens, HCT-116, 72 h), the midpoint of inhibition, the IC50, lay at 770 nM. The “% inhib. 0.1 μM” value in test [2] is 70%.

In test [1] (Homo sapiens, HCT-116, 72 h), `N[C@@H](CCc1ccccc1)C(=O)N1CCC(CCCC(=O)NO)CC1` [Ex 82, 4-[1-(2-(S)-Amino-4-phenyl-butyryl)-piperidin-4-yl]-N-hydroxy-butyramide] gave an IC50 of 530 nM. Also, in test [2], the “% inhib. 0.1 μM” value is reported as 62%.

Compound `O=C(CCCC1CCN(C(=O)Nc2cccc(Cl)c2F)CC1)NO` [Ex 83, 4-(3-Hydroxycarbamoyl-propyl)-piperidine-1-carboxylic acid (3-chloro-2-fluoro-phenyl)-amide] had an IC50 in test [1] (Homo sapiens, HCT-116, 72 h) of 670 nM. Also, in test [2], the “% inhib. 0.1 μM” value is 58%.

Compound `O=C(CCCC1CCN(C(=O)Nc2ccc(Cl)cc2F)CC1)NO` [Ex 90, 4-(3-Hydroxycarbamoyl-propyl)-piperidine-1-carboxylic acid (4-chloro-2-fluoro-phenyl)-amide] yielded an IC50 in test [1] (Homo sapiens, HCT-116, 72 h) of 450 nM. Further, the “% inhib. 0.1 μM” value in test [2] is 56%.

As to `N[C@H](Cc1cccc2ccccc12)C(=O)N1CCC(CCCC(=O)NO)CC1` [Ex 93, 4-[1-(2-(R)-Amino-3-naphthalen-1-yl-propionyl)-piperidin-4-yl]-N-hydroxy-butyramide], inhibition in test [1] (Homo sapiens, HCT-116, 72 h) was half-maximal at 500 nM (IC50). Further, in test [2], the “% inhib. 0.1 μM” value is 64%.

As to `O=C(CCCC1CCN(C(=O)[C@H](CO)NC(=O)c2cc3ccccc3s2)CC1)NO` [Ex 101, Benzo[b]thiophene-2-carboxylic acid {2-[4-(3-hydroxycarbamoyl-propyl)-piperidin-1-yl]-1-(S)-hydroxymethyl-2-oxo-ethyl}-amide], the IC50 in test [1] (Homo sapiens, HCT-116, 72 h) was determined as 510 nM. Also, the “% inhib. 0.1 μM” value in test [2] was 64%.

For the compound `O=C(CCCC1CCN(C(=O)[C@@H](CO)NC(=O)c2cc3ccccc3s2)CC1)NO` [Ex 102, Benzo[b]thiophene-2-carboxylic acid {2-[4-(3-hydroxycarbamoyl-propyl)-piperidin-1-yl]-1-(R)-hydroxymethyl-2-oxo-ethyl}-amide], in test [1] (Homo sapiens, HCT-116, 72 h), the midpoint of inhibition, the IC50, lay at 790 nM. Besides, the “% inhib. 0.1 μM” value in test [2] is 54%.

With `CN(C)[C@@H](CCc1ccccc1)C(=O)N1CCC(CCCC(=O)NO)CC1` [Ex 103, 4-[1-(2-(S)-Dimethylamino-4-phenyl-butyryl)-piperidin-4-yl]-N-hydroxy-butyramide], half-maximal inhibition in test [1] (Homo sapiens, HCT-116, 72 h) (IC50) required 200 nM. The “% inhib. 0.1 μM” value in test [2] was found to be 49%.

Compound `N[C@@H](CCc1ccccc1)C(=O)N1CCC(CCCC(=O)NO)CC1` [Ex 105, 4-[1-(2-(S)-Amino-4-phenyl-butyryl)-piperidin-4-yl]-N-hydroxy-butyramide] showed an IC50 in test [1] of 950 nM. Also, the “% inhib. 0.1 μM” value in test [2] was 59%.

Regarding `O=C(CCCC1CCN(C(=O)NCc2ccco2)CC1)NO` [Ex 106, 4-(3-Hydroxycarbamoyl-propyl)-piperidine-1-carboxylic acid (furan-2-ylmethyl)-amide], the IC50 in test [1] (Homo sapiens, HCT-116, 72 h) came to 710 nM. The “% inhib. 0.1 μM” value in test [2] amounted to 52%.

For `N[C@@H](CC(=O)N1CCC(CCCC(=O)NO)CC1)c1ccc2ccccc2c1` [Ex 109, 4-[1-(3-(S)-Amino-3-naphthalen-2-yl-propionyl)-piperidin-4-yl]-N-hydroxy-butyramide], the midpoint of inhibition in test [1] (Homo sapiens, HCT-116, 72 h), the IC50, lay at 68 nM. For the same compound, the “% inhib. 0.1 μM” value in test [2] turned out to be 71%.

As for `O=C(CCCC1CCN(C(=O)[C@@H](CCO)NC(=O)c2cc3ccccc3s2)CC1)NO` [Ex 110, Benzo[b]thiophene-2-carboxylic acid{3-hydroxy-1-(R)-[4-(3-hydroxycarbamoyl-propyl)-piperidine-1-carbonyl]-propyl}-amide], the IC50 in test [1] is 260 nM. The “% inhib. 0.1 μM” value in test [2] was 54%.

As for `N[C@H](CC(=O)N1CCC(CCCC(=O)NO)CC1)c1ccc2ccccc2c1` [Ex 111, 4-[1-(3-(R)-Amino-3-naphthalen-2-yl-propionyl)-piperidin-4-yl]-N-hydroxy-butyramide], the IC50 in test [1] (Homo sapiens, HCT-116, 72 h) was determined as 550 nM. In addition, the “% inhib. 0.1 μM” value in test [2] came to 66%.

For the compound `N[C@@H](CC(=O)N1CCC(CCCC(=O)NO)CC1)c1ccccc1` [Ex 112, 4-[1-(3-(S)-Amino-3-phenyl-propionyl)-piperidin-4-yl]-N-hydroxy-butyramide], in test [1] (Homo sapiens, HCT-116, 72 h), the half-inhibitory concentration (IC50) stood at 310 nM. The “% inhib. 0.1 μM” value in test [2] is on record as 55%.

Broadly, the IC50 is the concentration that inhibits the measured activity by half. Read a high IC50 as lower potency.
